5 compounds from publication PMC3206016, “Putting into Practice Domain-Linear Motif Interaction Predictions for Exploration of Protein Networks” (PLoS ONE, 2011) can be followed below.

Holding throughout (test): SPR binding of MBP-PDZ analyte to immobilised biotinylated peptides
Test [1] addresses T1, MAGI1-2/6 PDZ domain (Mus musculus, UniProt Q6RHR9).
T1 construct: The cDNA encoding residues 448–572 and 613–752 of mouse MAGI-1 (UniProt acc.: Q6RHR9-1) encoding for MAGI1-2/6; made in house; host or cells: E. coli BL21 DE3
To be noted: for norm. RU at 10 µM: SPR Req at 10 µM MBP-PDZ, normalised for analyte molecular weight and immobilised ligand. The protocol: (§1) We opted for the surface plasmon resonance (SPR) method to measure these 190 (19 proteins×2 peptide versions×5 PDZ constructs) interactions. In SPR various concentrations of “analytes” (here, PDZ domains fused to the Maltose Binding Protein (MBP)) flow over surfaces presenting attached “ligands” (here, biotinylated peptides). The amount of analyte interacting with the ligand is measured and quantified in response units (RU). The intensity of this signal is proportional to the binding strength of the assayed interaction (Figure 5A). K [drawing 13] were obtained using a 1∶1 interaction model. However, these calculated K [drawing 14] were rather inaccurate especially for weak interactions. Therefore, we preferred to rank the binding strengths of the 190 interactions using normalised RU signals at equilibrium ( [drawing 15] ) rather than K [drawing 16] (see Methods for details). These normalised [drawing 17] values were plotted in form of a heat map (Figure 5B).
(§2) The cDNA encoding residues 448–572 and 613–752 of mouse MAGI-1 (UniProt acc.: Q6RHR9-1) encoding for MAGI1-2/6 (100% identical to human MAGI1-2/6) and MAGI1-3/6 (99% identical to human MAGI1-3/6) PDZ domains, respectively, were inserted into the NcoI/KpnI sites of the pETM-41 expression vector (EMBL) containing a 6×His-MBP tag followed by a TEV protease cleavage site. A similar cloning strategy was adopted for cDNA bearing residues 997–1093, 1097–1193 and 997–1193 of human SCRIB (Uniprot acc.: Q14160-1) encoding for SCRIB-3/4, SCRIB-4/4 PDZ domains and SCRIB-34/4 tandem PDZ construct, respectively.
(§3) Data were collected on a Biacore 2000 instrument (Biacore AB/GE Healthcare Bio-Sciences Corp., Piscataway, NJ, USA) at 25 [drawing 74] C. SPR experiments (ligand immobilisation and binding measurements) have been performed as described in Fournane et al.. Briefly, biotinylated peptides (instead of GST-fused recombinant peptides) were immobilised on CM5 sensorchips on which Neutravidin was previously attached. The MBP-PDZ domain analyte was injected at 8 to 10 different concentrations ranging from 0 up to 30 [drawing 75] M. Data were processed using the BiaEvaluation 3.2 software (Biacore AB/GE Healthcare Bio-Sciences Corp.) using “double referencing” [78] in which sensorgrams were corrected for buffer effects and bulk refractive index changes.
(§4) The steady-state binding signal ( [drawing 76] ) was derived by averaging the signals in a five second window at equilibrium. Steady-state analysis was performed by fitting the average signal [drawing 77] as a function of total MBP-PDZ concentrations, assuming a simple 1∶1 interaction binding isotherm model. […] Reasons for this inaccuracy are likely to be the following: 1. As previously described, several repetitions of all the measurements are required to determine accurate K [drawing 81] . In our case, such repetitions were not achievable in reasonable time due to the large amount of interactions measured in this study. 2. The highest injected analyte concentration restricts the maximal K [drawing 82] (weakest interaction) that can be accurately obtained. 3. A K [drawing 83] is estimated based on a mathematical extrapolation of observed [drawing 84] signals leading to additional uncertainty. Based on these reasons, we considered the calculated K [drawing 85] not as accurate enough to be used for absolute binding strength comparison in this study. We rather performed a relative analysis of binding strengths using directly [drawing 86] signals which are not biased by any mathematical assumption. We focussed on [drawing 87] signals obtained at 10 [drawing 88] M MBP-PDZ concentration, which have been systematically measured in duplicate. The [drawing 89] signal is directly proportional to the molecular weight of the analyte and the amount of immobilised ligand. Therefore, the [drawing 90] signals were normalised taking those into account before being used for binding strength comparison. […]

For test [2], the target named is T2, SCRIB-34/4 tandem PDZ construct (Homo sapiens, UniProt Q14160).
T2 construct: residues 997–1093, 1097–1193 and 997–1193 of human SCRIB (Uniprot acc.: Q14160-1); made in house; host or cells: E. coli BL21 DE3
T2 sequence (Q14160 997-1193 isoform Q14160-1): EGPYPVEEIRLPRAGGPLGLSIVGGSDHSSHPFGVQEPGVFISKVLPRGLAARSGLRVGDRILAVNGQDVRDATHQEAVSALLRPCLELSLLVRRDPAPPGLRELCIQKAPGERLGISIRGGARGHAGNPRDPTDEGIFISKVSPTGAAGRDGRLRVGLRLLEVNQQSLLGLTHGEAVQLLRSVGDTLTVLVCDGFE
To be noted: for norm. RU at 10 µM: SPR Req at 10 µM MBP-PDZ, normalised for analyte molecular weight and immobilised ligand; for Kd: tentative KD, SPR Biacore 2000, 25 C, steady state, 1:1 binding isotherm, MBP-PDZ 0-30 µM, to be considered with caution. On the procedure: as §1, §2, §3, §4
Background: Surface plasmon resonance follows binding to a sensor surface in real time, without labels.

Test [3] concerns the target T3, SCRIB-4/4 PDZ domain (Homo sapiens, UniProt Q14160).
T3 construct: residues 997–1093, 1097–1193 and 997–1193 of human SCRIB (Uniprot acc.: Q14160-1); made in house; host or cells: E. coli BL21 DE3
T3 sequence (Q14160 1097-1193 isoform Q14160-1): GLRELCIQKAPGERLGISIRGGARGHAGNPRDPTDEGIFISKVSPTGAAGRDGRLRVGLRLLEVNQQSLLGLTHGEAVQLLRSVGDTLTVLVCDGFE
To be noted: for norm. RU at 10 µM: SPR Req at 10 µM MBP-PDZ, normalised for analyte molecular weight and immobilised ligand; for Kd: tentative KD, SPR Biacore 2000, 25 C, steady state, 1:1 binding isotherm, MBP-PDZ 0-30 µM, to be considered with caution. The protocol: as §1, §2, §3, §4

The target in test [4] is T4, SCRIB-3/4 PDZ domain (Homo sapiens, UniProt Q14160).
T4 construct: cDNA bearing residues 997–1093, 1097–1193 and 997–1193 of human SCRIB (Uniprot acc.: Q14160-1); made in house; host or cells: E. coli BL21 DE3
T4 sequence (Q14160 997-1093 isoform Q14160-1): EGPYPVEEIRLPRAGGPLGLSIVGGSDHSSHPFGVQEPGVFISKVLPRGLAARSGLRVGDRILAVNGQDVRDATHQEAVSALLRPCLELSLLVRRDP
To be noted: for norm. RU at 10 µM: SPR Req at 10 µM MBP-PDZ, normalised for analyte molecular weight and immobilised ligand; for Kd: tentative KD, SPR Biacore 2000, 25 C, steady state, 1:1 binding isotherm, MBP-PDZ 0-30 µM, to be considered with caution. The protocol: as §1, §2, §3, §4

Test [5] deals with T5, MAGI1-3/6 PDZ domain (Mus musculus, UniProt Q6RHR9).
T5 construct: The cDNA encoding residues 448–572 and 613–752 of mouse MAGI-1 (UniProt acc.: Q6RHR9-1); made in house; host or cells: E. coli BL21 DE3
T5 sequence (Q6RHR9 613-752): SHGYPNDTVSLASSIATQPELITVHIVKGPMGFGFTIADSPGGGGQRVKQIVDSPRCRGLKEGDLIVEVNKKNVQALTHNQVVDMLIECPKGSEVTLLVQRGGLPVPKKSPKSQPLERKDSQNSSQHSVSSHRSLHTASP
As to conditions: for norm. RU at 10 µM: SPR Req at 10 µM MBP-PDZ, normalised for analyte molecular weight and immobilised ligand; for Kd: tentative KD, SPR Biacore 2000, 25 C, steady state, 1:1 binding isotherm, MBP-PDZ 0-30 µM, to be considered with caution. The protocol: as §1, §2, §3, §4

Where “and” joins values, the source holds several entries; their conditions need not be identical. Equal values may be shown once. Ends that are not written are not given here. Peptide text beside a SMILES is read from it. * marks the point of attachment. Biotin = O=C1N[C@H]2[C@H](CS[C@H]2CCCCC(=O)*)N1

T1 sequence (Q6RHR9 448-572): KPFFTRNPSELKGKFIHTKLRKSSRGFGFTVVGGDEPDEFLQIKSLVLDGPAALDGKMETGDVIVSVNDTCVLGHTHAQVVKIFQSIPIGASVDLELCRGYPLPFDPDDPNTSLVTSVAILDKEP

On to “EKPIDSETKM [GLAST_10, long peptide: last ten wild type C-terminal residues of Excitatory amino acid transporter 1, biotinylated]”, for which the “norm. RU at 10 µM” value in test [1], in test [2], in test [3], in test [4] and in test [5] was 0.0 RU in each case.

In the case of `CC(C)[C@H](NC(=O)[C@H](CCC(=O)O)NC(=O)[C@@H](NC(=O)[C@H](CCC(=O)O)NC(=O)[C@H](CCCNC(=N)N)NC(=O)CNC(=O)[C@H](C)NC(=O)CNC(=O)[C@H](CO)NC(=O)CNC(=O)CCCC[C@@H]1SC[C@@H]2NC(=O)N[C@@H]21)[C@@H](C)O)C(=O)O` [TAX1_05] (Biotin-GSGAGRETEV-OH), the Kd (in general, the concentration at which binding is half-saturated) in test [1] (tentative KD, SPR Biacore 2000, 25 C, steady state, 1:1 binding isotherm, MBP-PDZ 0-30 µM, to be considered with caution) amounted to 33 µM; in test [2], 1 µM; in test [3], 50 µM; in test [4], 96 µM; in test [5], 75 µM.

For the compound `CC(C)[C@H](NC(=O)[C@@H](NC(=O)[C@@H](NC(=O)[C@H](CCC(=O)O)NC(=O)[C@H](CCCCN)NC(=O)[C@H](CO)NC(=O)[C@H](CC(N)=O)NC(=O)[C@H](CCCNC(=N)N)NC(=O)[C@H](CCCCN)NC(=O)[C@@H](NC(=O)CCCC[C@@H]1SC[C@@H]2NC(=O)N[C@@H]21)C(C)C)[C@@H](C)O)C(C)C)C(=O)O` [MARCH3_10] (Biotin-VKRNSKETVV-OH), the “norm. RU at 10 µM” value in test [1] came out at 54.7 RU; in test [2], 88.1 RU; in test [3], 0.0 RU; in test [4], 22.7 RU; in test [5] it was 10.9 RU.

As to “RSSRTRRETQV [16E6L/V, reference compound]”, the Kd in test [2] is 3 µM and 4 µM; in test [3], 47 µM and 55 µM; in test [4], 18 µM and 41 µM and 32 µM; in test [5] it was 69 µM and 76 µM and 202 µM.

With `C[C@H](NC(=O)[C@@H](NC(=O)CCCC[C@@H]1SC[C@@H]2NC(=O)N[C@@H]21)[C@@H](C)O)C(=O)N[C@@H](CO)C(=O)N1CCC[C@H]1C(=O)N[C@@H](C)C(=O)N[C@@H](CCCCN)C(=O)N[C@@H](CCC(=O)O)C(=O)N[C@H](C(=O)N[C@@H](CO)C(=O)N[C@@H](Cc1ccccc1)C(=O)O)[C@@H](C)O` [GLUT7_10] (Biotin-TASPAKETSF-OH), the “norm. RU at 10 µM” value in test [1] was 0.0 RU; in test [2], 70.8 RU; in test [3] it was 0.0 RU; in test [4], 57.5 RU; in test [5], 0.0 RU.
